One assay deals with CD8+ T cells. In words: In vitro T cell priming assay with aAPCs loaded with peptide/MHC complexes and anti-CD28, pMHC multimer readout. The format is cell-based, human. Particulars: percentage of positive wells and donors (among evaluable), healthy HLA-A*02+ donors. The source says:
In order to obtain information regarding the immunogenicity of the TUMAPs of the present invention, the inventors performed investigations using an in vitro T cell priming assay based on repeated stimulations of CD8+ T cells with artificial antigen presenting cells (aAPCs) loaded with peptide/MHC complexes and anti-CD28 antibody.
In order to perform in vitro stimulations by artificial antigen presenting cells loaded with peptide-MHC complex (pMHC) and anti-CD28 antibody, the inventors first isolated CD8+ T cells from fresh HLA-A*02 leukapheresis products via positive selection using CD8 microbeads (Miltenyi Biotec, Bergisch-Gladbach, Germany) of healthy donors obtained from the University clinics Mannheim, Germany, after informed consent.
PBMCs and isolated CD8+ lymphocytes were incubated in T cell medium (TCM) until use consisting of RPMI-Glutamax (Invitrogen, Karlsruhe, Germany) supplemented with 10% heat inactivated human AB serum (PAN-Biotech, Aidenbach, Germany), 100 U/ml Penicillin/100 μg/ml Streptomycin (Cambrex, Cologne, Germany), 1 mM sodium pyruvate (CC Pro, Oberdorla, Germany), 20 μg/ml Gentamycin (Cambrex). 2.5 ng/ml IL-7 (PromoCell, Heidelberg, Germany) and 10 U/ml IL-2 (Novartis Pharma, Nurnberg, Germany) were also added to the TCM at this step.
Generation of pMHC/anti-CD28 coated beads, T cell stimulations and readout was performed in a highly defined in vitro system using four different pMHC molecules per stimulation condition and 8 different pMHC molecules per readout condition.
The purified co-stimulatory mouse IgG2a anti human CD28 Ab 9.3 (Jung et al., 1987) was chemically biotinylated using Sulfo-N-hydroxysuccinimidobiotin as recommended by the manufacturer (Perbio, Bonn, Germany). Beads used were 5.6 μm diameter streptavidin coated polystyrene particles (Bangs Laboratories, Illinois, USA).
800.000 beads/200 μl were coated in 96-well plates in the presence of 4×12.5 ng different biotin-pMHC, washed and 600 ng biotin anti-CD28 were added subsequently in a volume of 200 μl. Stimulations were initiated in 96-well plates by co-incubating 1×10^6 CD8+ T cells with 2×10^5 washed coated beads in 200 μl TCM supplemented with 5 ng/ml IL-12 (PromoCell) for 3 days at 37° C. Half of the medium was then exchanged by fresh TCM supplemented with 80 U/ml IL-2 and incubating was continued for 4 days at 37° C. This stimulation cycle was performed for a total of three times. For the pMHC multimer readout using 8 different pMHC molecules per condition, a two-dimensional combinatorial coding approach was used as previously described (Andersen et al., 2012) with minor modifications encompassing coupling to 5 different fluorochromes. Finally, multimeric analyses were performed by staining the cells with Live/dead near IR dye (Invitrogen, Karlsruhe, Germany), CD8-FITC antibody clone SK1 (BD, Heidelberg, Germany) and fluorescent pMHC multimers. For analysis, a BD LSRII SORP cytometer equipped with appropriate lasers and filters was used. Peptide specific cells were calculated as percentage of total CD8+ cells. Evaluation of multimeric analysis was done using the FlowJo software (Tree Star, Oregon, USA). In vitro priming of specific multimer+CD8+ lymphocytes was detected by comparing to negative control stimulations.

Another assay deals with HLA-A*02:01 (Homo sapiens, UniProt P04439, D140Y/D185E/D98H/E176V/E277Q/G131W/G231S/I119V/I121R/I166T/I218V/L300P/L318F/N151K/N90K/P208A/P217A/Q86G/Q94H/R138H/R169H/T345S). In words: MHC binding assay (UV-ligand exchange, anti-β2m ELISA). Particulars: peptide exchange yield, binding to HLA-A*02:01. The source says:
Candidate peptides for T cell based therapies according to the present invention were further tested for their MHC binding capacity (affinity). The individual peptide-MHC complexes were produced by UV-ligand exchange, where a UV-sensitive peptide is cleaved upon UV-irradiation and exchanged with the peptide of interest as analyzed. Only peptide candidates that can effectively bind and stabilize the peptide-receptive MHC molecules prevent dissociation of the MHC complexes. To determine the yield of the exchange reaction, an ELISA was performed based on the detection of the light chain (β2m) of stabilized MHC complexes. The assay was performed as generally described in Rodenko et al. (Rodenko et al., 2006).
96 well MAXISorp plates (NUNC) were coated over night with 2 μg/ml streptavidin in PBS at room temperature, washed 4× and blocked for 1 h at 37° C. in 2% BSA containing blocking buffer. Refolded HLA-A*02:01/MLA-001 monomers served as standards, covering the range of 15-500 ng/ml. Peptide-MHC monomers of the UV-exchange reaction were diluted 100-fold in blocking buffer. Samples were incubated for 1 h at 37° C., washed four times, incubated with 2 μg/ml HRP conjugated anti-β2m for 1 h at 37° C., washed again and detected with TMB solution that is stopped with […]. Absorption was measured at 450 nm. Candidate peptides that show a high exchange yield (preferably higher than 50%, most preferred higher than 75%) are generally preferred for a generation and production of antibodies or fragments thereof, and/or T cell receptors or fragments thereof, as they show sufficient avidity to the MHC molecules and prevent dissociation of the MHC complexes.

These results are taken from US11969464B2, “Amidated peptides and their deamidated counterparts displayed by HLA-A*02 for use in immunotherapy against different types of cancers” (Immatics Biotechnologies GmbH, priority 2020, dated 2024).

With “6 (NLYNDLTNV; peptide displayed by HLA-A*02) [compound 6]”, the “Wells positive [%]” value in the assay with CD8+ T cells was “+ (<20% = +)”. For the same substance, the Peptide exchange result in the assay with HLA-A*02:01 is listed as “+++ (≥50% = +++)”.

Turning to “8 (KLAPDLTEL; peptide displayed by HLA-A*02) [compound 8]”, the “Wells positive [%]” value in the assay with CD8+ T cells is recorded as “+ (<20% = +)”. Further, the Peptide exchange result with HLA-A*02:01 is “+++ (≥50% = +++)”.

Turning to “65 (ILLDKSTVL; peptide displayed by HLA-A*02) [compound 65]”, the “Wells positive [%]” value in the assay on CD8+ T cells was “+ (<20% = +)”. In addition, in the assay with HLA-A*02:01, the Peptide exchange result is on record as “++++ (≥75% = ++++)”.

With “98 (NLLADVSTV; peptide displayed by HLA-A*02) [compound 98]”, the “Wells positive [%]” value with CD8+ T cells is recorded as “+ (<20% = +)”. Besides, in the assay with HLA-A*02:01, the Peptide exchange entry is recorded as “+++ (≥50% = +++)”.

“96 (KLDASLPAL; peptide displayed by HLA-A*02) [compound 96]”: in the assay on CD8+ T cells, the “Wells positive [%]” value is given as “+ (<20% = +)”. The Peptide exchange entry with HLA-A*02:01 was “++++ (≥75% = ++++)”.

For the substance “100 (SLLFQDITL; peptide displayed by HLA-A*02) [compound 100]”, in the assay on CD8+ T cells, the “Wells positive [%]” value is listed as “+ (<20% = +)”. Further, the Peptide exchange entry with HLA-A*02:01 is given as “++++ (≥75% = ++++)”.

Take “97 (KLLDGSQRV; peptide displayed by HLA-A*02) [compound 97]”: in the assay with CD8+ T cells, the “Wells positive [%]” value is “+ (<20% = +)”. Further, the Peptide exchange entry in the assay with HLA-A*02:01 is recorded as “+++ (≥50% = +++)”.
